The source made the active and inactive calls.
Experiments:
Aminopeptidase N = molecular target: T1, Aminopeptidase N (Plasmodium falciparum FcB1/Columbia, UniProt O96935); assay: P. falciparum M1AAP inhibitors, biochemical, fluorogenic H-Leu-NHMec substrate, 1536-well (AID 1445); set-up: species or system Plasmodium falciparum 3D7, 3D7
T1 sequence (O96935 whole entry): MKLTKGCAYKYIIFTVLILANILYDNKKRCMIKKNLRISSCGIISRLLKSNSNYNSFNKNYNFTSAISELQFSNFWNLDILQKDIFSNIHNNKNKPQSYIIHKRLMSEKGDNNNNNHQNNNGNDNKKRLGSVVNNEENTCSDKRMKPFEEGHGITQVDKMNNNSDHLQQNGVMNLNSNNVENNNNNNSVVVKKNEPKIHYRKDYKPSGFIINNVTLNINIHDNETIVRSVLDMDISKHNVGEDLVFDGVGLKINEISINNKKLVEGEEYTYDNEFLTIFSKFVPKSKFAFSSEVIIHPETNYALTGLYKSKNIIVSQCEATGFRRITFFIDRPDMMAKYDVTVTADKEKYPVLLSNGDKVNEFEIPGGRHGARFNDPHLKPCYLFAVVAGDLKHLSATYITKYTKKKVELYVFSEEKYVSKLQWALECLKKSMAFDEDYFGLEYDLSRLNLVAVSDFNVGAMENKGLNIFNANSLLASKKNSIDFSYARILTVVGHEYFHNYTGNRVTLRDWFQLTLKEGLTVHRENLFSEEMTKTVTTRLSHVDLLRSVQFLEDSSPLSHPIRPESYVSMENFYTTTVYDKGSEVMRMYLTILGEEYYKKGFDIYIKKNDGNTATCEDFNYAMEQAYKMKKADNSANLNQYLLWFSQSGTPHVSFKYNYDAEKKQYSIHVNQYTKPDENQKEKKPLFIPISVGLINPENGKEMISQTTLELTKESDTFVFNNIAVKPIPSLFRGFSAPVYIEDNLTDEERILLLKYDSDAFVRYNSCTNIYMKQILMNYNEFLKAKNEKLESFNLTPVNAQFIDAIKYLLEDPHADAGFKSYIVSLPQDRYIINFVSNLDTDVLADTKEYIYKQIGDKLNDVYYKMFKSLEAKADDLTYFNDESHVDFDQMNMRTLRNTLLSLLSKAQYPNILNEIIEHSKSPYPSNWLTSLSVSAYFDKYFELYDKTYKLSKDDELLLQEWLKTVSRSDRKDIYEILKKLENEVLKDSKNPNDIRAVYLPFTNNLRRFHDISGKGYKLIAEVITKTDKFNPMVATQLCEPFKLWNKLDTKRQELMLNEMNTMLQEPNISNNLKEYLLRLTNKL

[1] = NIH-3T3 fibroblast cytotoxicity, dose response, cytotoxicity control, cell-based, fluorescence, Alamar Blue, secondary assay (AID 2327); assay type: functional;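 note: NIH-3T3 mouse fibroblasts cultured with fluconazole at 8 µg/mL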
cells [2] = assay: cells
[3] = molecular target: T2, Short transient receptor potential channel 4 (Mus musculus, UniProt Q9QUQ5); assay: mouse TRPC4 channel inhibitors, dose response, cell-based, HEK293 TRPC4/mu-opioid, Fluo-4 calcium (AID 434942); assay type: functional;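 note: potency of inhibitors blocking the TRPC4 calcium response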
T2 sequence (Q9QUQ5 whole entry): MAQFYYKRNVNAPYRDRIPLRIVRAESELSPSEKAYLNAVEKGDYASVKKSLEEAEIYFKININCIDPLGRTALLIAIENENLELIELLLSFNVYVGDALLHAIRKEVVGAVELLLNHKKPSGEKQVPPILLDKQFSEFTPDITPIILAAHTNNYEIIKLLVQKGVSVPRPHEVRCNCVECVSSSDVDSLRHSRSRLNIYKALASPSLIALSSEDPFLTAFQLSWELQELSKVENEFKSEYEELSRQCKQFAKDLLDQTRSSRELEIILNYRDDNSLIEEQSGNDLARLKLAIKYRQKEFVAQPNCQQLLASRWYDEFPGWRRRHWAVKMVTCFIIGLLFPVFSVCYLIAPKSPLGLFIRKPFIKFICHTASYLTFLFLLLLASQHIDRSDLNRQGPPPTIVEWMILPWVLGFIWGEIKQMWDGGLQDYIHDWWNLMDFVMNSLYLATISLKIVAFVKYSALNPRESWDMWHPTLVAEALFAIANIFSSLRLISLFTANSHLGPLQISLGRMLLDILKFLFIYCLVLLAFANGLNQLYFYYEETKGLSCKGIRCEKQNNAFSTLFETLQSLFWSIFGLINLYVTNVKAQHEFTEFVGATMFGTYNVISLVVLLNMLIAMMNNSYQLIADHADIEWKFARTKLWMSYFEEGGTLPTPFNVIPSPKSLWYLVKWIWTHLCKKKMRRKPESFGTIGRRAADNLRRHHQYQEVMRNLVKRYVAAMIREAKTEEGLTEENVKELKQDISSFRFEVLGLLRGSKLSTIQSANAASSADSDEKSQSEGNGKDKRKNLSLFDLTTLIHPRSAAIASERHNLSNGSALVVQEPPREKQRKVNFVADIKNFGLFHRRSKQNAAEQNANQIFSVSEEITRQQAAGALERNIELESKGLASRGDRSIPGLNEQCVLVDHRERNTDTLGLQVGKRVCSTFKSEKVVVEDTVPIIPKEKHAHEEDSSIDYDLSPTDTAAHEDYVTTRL

[4] = C. albicans growth with fluconazole, confirmation, fluorescence, retest (AID 2467); assay type: functional, cell-based
Large T antigen = Large T antigen (Simian virus 40, UniProt P03070); assay type: functional, Betapolyomavirus macacae;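 note: Confirmatory-stage PubChem screen for compounds that inhibit SV40 T antigen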
[5] = inhibitors of intracellular T. cruzi replication, confirmation, NIH3T3 host cells, beta-gal luminescence (AID 2044); assay type: functional, cell-based;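 note: intracellular parasites grown in NIH/3T3 mouse fibroblasts as host cells; luminescent beta-galactosidase reporter signal from transgenic T. cruzi replicating inside host cells; inhibitors lower the luminescence signal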
[6] = cytotoxicity toward NIH3T3 fibroblasts, dose response, counter-screen, cell-based, ATP luminescence, mouse fibroblasts (AID 2010); assay type: functional;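 note: cells exposed to compound for about 90 hours before reading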
Ion channel NompC = Ion channel NompC (Danio rerio, UniProt Q7T1G6); assay: Fluorescence counterscreen assay for TRPML3 agonists: dose response cell-based high-throughput screening assay to identify agonists of the transient receptor potential channel N1 (TRPN1). [Related pubchem assays: 1526, 1424, 1448 ]; assay type: functional
Mucolipin-3 = molecular target: T3, Mucolipin-3 (Homo sapiens, UniProt Q8TDD5); assay: Dose response cell-based high-throughput screening assay for agonists of the transient receptor potential channel ML3 (TRPML3). [Related pubchem assays: 1526, 1424, 1448 ]; assay type: functional
T3 sequence (Q8TDD5 whole entry): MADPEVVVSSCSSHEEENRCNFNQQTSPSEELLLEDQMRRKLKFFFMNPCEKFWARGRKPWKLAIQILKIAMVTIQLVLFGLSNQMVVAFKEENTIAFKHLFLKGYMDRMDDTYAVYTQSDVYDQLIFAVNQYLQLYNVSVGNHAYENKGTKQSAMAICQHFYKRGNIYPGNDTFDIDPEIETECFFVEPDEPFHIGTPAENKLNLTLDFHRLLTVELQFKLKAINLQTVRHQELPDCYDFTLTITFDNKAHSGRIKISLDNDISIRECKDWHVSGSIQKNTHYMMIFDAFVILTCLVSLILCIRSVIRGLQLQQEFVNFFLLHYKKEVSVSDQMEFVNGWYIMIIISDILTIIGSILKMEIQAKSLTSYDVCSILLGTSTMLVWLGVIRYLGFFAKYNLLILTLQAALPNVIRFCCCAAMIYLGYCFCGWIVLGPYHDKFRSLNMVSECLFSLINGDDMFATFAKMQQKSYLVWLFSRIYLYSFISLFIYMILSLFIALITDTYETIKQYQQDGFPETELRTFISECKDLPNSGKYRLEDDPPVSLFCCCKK

[7] = inhibitors of SNCA 5'UTR-driven translation, confirmation, luminescence, H4 neuroglioblastoma cells, dose confirmation (AID 2454); assay type: functional, cell-based;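 note: H4 neuroglioblastoma cells carrying an alpha-synuclein 5'UTR luciferase reporter; potency for inhibition of the luciferase signal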
HEK293 [8] = assay: NOD2 signaling inhibitors in MDP-stimulated cells, cell-based, uHTS, luminescence (AID 2001); assay type: functional; conditions: Homo sapiens
[9] = inhibitors of firefly luciferase expression or activity, dose response, H4 neuroglioma cells, luminescence (AID 1990); assay type: functional, cell-based
[10] = Luminescence Cell-Based Dose Response HTS to Identify Inhibitors of 5'UTR Stem-Loop Driven Prion Protein mRNA Translation in H4 Neuroglioblastoma Cells. [Related pubchem assays: 1827 (Project Summary), 1813 (Primary HTS)]; assay type: functional
HEK293 [11] = assay: cells; assay type: functional, cell-based; conditions: Homo sapiens
HEK293 [12] = assay: cells; assay type: functional, cell-based; conditions: Homo sapiens; remark: listed apart in the source
[13] = luciferase reporter signal reduction – luminescence, H4-C neuroglioblastoma cells, dose response (AID 2458); assay type: functional, cell-based;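 note: H4 neuroglioblastoma cells stably carrying a luciferase reporter gene fusion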
[14] = inhibitors of SNCA 5'UTR-driven reporter translation, confirmation, H4 neuroglioma cells, luminescence (AID 1988); assay type: functional, cell-based
HEK293 [15] = assay: cells; assay type: functional, cell-based; conditions: Homo sapiens; remark: listed apart in the source
cells [16] = assay type: functional, cell-based
[17] = molecular target: Nucleotide-binding oligomerization domain-containing protein 2 (Homo sapiens, UniProt Q9HC29); assay: NOD2 signaling inhibitors, cell-based, luminescence, uHTS, HEK293 (AID 1566); assay type: functional
HEK293 [18] = assay: NOD1 signaling inhibitors, primary screen, cell-based, luminescence, uHTS (AID 1578); assay type: functional; conditions: Homo sapiens
[19] = HepG2 cell cytotoxicity, dose response, cytotoxicity control, plate reader, cherry-pick, antagonist series (AID 743416); assay type: functional, cell-based
[20] = MC4R antagonists, dose response, counter-screen for LGR2 antagonist project, cell-based, plate reader, cherry pick (AID 743444); assay type: functional;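 note: transfected HEK 293 cells stimulated with alpha-MSH peptide; potency of inhibitors of the alpha-MSH evoked signal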
[21] = A549 cell cytotoxicity, dose response, cytotoxicity control, plate reader, cherry-pick, antagonist series (AID 743412); assay type: functional, cell-based
INS1 = assay: beta cell apoptosis inhibitors, cytokine rescue, dose response, luminescence, retest (AID 449756); assay type: functional, cell-based; conditions: Rattus norvegicus;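 note: cell death triggered by IL-1 beta plus TNF-alpha plus IFN-gamma mixture; protective hits raise ATP signal compared with cytokine alone wells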
[22] = LGR2 antagonists, dose response, cell-based, HEK293, CRE-luciferase reporter, cherry pick, set 2 (AID 743343); assay type: functional;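 note: transfected cells were stimulated with diluted bursicon conditioned medium after compound addition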
Estrogen receptor beta = Estrogen receptor beta (Homo sapiens, UniProt Q92731); assay: ERβ–SRC-3 coactivator interaction inhibitors, confirmation, orthogonal assay, biochemical, ELISA, streptavidin-HRP readout (AID 1060)
Protein Tat = molecular target: T4, Protein Tat (Human immunodeficiency virus type 1 group M subtype B (isolate HXB2)(HIV-1), UniProt P04608); assay type: functional;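 note: tat binding to TAR RNA read out by fluorescence polarization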
T4 sequence (P04608 whole entry): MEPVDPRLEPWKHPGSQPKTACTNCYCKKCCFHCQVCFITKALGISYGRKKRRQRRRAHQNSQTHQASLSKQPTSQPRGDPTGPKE

Sequence of Ion channel NompC (Q7T1G6 whole entry): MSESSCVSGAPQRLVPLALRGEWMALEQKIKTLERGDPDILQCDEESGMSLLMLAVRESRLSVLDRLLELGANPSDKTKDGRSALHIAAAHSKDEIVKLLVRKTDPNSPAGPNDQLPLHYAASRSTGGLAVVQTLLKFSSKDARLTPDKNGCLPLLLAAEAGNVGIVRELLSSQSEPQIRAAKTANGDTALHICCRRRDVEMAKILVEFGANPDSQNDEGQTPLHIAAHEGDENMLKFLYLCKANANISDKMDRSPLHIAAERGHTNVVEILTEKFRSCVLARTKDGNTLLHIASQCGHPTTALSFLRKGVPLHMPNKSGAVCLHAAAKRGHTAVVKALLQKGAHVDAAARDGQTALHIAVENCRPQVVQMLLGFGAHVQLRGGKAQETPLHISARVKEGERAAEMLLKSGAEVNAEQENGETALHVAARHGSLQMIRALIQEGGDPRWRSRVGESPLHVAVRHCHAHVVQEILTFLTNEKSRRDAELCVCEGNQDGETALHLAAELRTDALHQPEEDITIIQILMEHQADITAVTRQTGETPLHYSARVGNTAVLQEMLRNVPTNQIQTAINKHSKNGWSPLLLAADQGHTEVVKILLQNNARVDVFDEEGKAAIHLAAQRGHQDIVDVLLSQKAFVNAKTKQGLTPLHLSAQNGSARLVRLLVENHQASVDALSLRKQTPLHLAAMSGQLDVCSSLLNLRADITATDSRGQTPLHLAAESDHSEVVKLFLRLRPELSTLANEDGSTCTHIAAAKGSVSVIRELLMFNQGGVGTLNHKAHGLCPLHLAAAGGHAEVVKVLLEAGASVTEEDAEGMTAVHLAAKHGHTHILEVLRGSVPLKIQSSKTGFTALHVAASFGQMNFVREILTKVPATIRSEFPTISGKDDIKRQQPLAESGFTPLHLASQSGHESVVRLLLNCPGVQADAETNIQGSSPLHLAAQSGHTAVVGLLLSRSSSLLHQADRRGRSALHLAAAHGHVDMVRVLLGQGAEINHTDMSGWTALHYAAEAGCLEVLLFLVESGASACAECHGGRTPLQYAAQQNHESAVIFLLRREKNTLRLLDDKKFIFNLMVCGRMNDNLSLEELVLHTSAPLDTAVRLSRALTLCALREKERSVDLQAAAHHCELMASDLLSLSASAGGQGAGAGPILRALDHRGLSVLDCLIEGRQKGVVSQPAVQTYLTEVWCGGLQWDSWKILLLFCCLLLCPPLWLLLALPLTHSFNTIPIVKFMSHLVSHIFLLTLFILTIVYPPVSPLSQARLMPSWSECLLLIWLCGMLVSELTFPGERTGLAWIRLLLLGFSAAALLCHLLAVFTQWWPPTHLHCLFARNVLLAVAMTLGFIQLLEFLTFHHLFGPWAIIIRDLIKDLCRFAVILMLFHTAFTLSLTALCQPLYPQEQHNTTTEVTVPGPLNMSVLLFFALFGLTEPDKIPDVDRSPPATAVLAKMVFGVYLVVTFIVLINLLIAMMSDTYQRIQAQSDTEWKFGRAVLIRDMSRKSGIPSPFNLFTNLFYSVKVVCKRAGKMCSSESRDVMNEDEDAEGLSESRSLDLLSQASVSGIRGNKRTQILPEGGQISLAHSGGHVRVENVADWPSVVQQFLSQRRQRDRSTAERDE
Sequence of Estrogen receptor beta (Q92731 whole entry): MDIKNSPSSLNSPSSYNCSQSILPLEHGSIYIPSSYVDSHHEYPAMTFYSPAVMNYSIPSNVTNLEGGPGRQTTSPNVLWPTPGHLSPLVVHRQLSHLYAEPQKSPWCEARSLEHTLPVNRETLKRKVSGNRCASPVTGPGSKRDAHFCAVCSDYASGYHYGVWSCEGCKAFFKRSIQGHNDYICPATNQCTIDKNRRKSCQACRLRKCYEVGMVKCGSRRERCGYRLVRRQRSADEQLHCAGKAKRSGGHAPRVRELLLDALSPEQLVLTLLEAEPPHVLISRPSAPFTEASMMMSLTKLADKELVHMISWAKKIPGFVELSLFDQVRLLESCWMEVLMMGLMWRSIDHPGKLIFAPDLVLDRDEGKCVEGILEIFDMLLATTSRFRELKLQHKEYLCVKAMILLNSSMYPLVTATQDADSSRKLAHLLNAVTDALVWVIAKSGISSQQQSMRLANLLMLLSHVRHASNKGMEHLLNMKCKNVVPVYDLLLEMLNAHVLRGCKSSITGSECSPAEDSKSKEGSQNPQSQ
Sequence of Nucleotide-binding oligomerization domain-containing protein 2 (Q9HC29 whole entry, the tested form may be a part): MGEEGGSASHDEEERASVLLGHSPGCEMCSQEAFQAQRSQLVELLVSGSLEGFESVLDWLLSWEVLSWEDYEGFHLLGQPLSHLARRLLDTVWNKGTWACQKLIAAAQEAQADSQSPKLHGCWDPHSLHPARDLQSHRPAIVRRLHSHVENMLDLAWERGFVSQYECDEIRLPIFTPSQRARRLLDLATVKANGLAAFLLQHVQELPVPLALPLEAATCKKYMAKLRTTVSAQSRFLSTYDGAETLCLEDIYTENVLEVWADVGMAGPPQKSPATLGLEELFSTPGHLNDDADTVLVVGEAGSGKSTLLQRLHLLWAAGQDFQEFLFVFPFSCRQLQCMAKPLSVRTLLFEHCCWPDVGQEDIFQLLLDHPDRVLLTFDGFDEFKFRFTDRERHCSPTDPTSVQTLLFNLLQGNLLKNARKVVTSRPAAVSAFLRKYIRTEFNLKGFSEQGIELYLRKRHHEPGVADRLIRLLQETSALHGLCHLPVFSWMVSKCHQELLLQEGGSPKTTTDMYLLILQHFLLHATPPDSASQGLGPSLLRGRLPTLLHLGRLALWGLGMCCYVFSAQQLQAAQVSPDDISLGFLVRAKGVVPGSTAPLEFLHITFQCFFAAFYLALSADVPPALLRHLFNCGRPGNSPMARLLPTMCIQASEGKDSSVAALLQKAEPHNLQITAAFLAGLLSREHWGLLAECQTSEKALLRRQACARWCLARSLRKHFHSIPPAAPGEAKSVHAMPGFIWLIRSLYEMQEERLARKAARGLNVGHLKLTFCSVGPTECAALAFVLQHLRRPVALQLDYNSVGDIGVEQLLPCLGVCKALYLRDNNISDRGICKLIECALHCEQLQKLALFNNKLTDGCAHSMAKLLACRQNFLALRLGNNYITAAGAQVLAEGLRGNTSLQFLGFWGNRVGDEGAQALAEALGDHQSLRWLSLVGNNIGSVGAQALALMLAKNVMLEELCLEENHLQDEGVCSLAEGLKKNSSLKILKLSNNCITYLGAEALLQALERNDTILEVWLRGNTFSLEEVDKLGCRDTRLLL
Sequence of Large T antigen (P03070 whole entry): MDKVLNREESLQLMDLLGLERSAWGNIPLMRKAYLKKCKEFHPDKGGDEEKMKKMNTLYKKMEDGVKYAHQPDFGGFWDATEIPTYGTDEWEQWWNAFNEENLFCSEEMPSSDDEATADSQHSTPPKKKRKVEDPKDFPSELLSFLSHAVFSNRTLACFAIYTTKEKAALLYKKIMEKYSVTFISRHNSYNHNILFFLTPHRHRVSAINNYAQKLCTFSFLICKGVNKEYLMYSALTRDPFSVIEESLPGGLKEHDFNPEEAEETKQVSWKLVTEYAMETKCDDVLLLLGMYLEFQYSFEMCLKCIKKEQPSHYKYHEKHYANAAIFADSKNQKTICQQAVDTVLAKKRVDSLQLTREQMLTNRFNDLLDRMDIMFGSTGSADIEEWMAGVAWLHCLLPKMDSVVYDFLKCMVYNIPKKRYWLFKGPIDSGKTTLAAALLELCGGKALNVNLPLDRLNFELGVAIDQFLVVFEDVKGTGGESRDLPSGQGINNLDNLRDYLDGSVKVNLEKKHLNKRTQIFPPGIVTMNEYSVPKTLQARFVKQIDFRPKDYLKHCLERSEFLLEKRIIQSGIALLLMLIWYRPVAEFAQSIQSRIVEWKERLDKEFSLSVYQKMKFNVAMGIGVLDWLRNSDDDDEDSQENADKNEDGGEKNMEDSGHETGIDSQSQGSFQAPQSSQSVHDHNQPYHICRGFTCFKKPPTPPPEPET

O=C(NN1C(=O)c2ccccc2NC1c1ccco1)c1ccccc1 (centres undefined)
IC50 (Aminopeptidase N): 61.3 µM (active)

CCCC[n+]1c2ccccc2cc2ccccc21
EC50 [1]: > 150 µM (inactive) | EC50 (cells [2]): 0.041 µM (active) | EC50 [3]: 4.22 µM (active) | EC50 [4]: 0.604 µM (active) | IC50 (Large T antigen): 42.4 µM (active) | EC50 [5]: < 0.1 µM (active) | EC50 [6]: > 60 µM (not active)

O=S(=O)(c1ccccc1)C1(S(=O)(=O)c2ccccc2)CCCC1
EC50 (Ion channel NompC): > 29.9 µM (not active) | EC50 (Mucolipin-3): 5.62 µM (active)

O=C(C1=C(O)C(=O)N(c2nccs2)C1c1ccccc1)c1ccc2c(c1)OCCO2 (centres undefined)
EC50 [7]: 1.93 µM (active) | IC50 (HEK293 [8]): 18.6 µM (inactive) | EC50 [9]: 0.146 µM (active) | EC50 [10]: < 0.1 µM (active) | IC50 (HEK293 [11]): > 20 µM (inactive) | IC50 (HEK293 [12]): > 20 µM (inactive) | EC50 [13]: 4.2 µM (active) | EC50 [14]: 7.17 µM (active) | IC50 (HEK293 [15]): > 20 µM (inactive) | EC50 (cells [16]): 1.11 µM (active) | EC50 [17]: 5.45 µM (active) | EC50 (HEK293 [18]): 11.5 µM (active)

COc1ccc(N(C)S(=O)(=O)c2ccc(C)cc2)c([N+](=O)[O-])c1
EC50 (Ion channel NompC): > 29.9 µM (not active) | EC50 (Mucolipin-3): 3.13 µM (active)

O=C(CN1C(=O)c2ccccc2S1(=O)=O)c1ccc(F)cc1
AC50 [19]: > 52 µM (inactive) | EC50 [7]: 2.32 µM (active) | AC50 [20]: 3.02 µM (active) | EC50 [9]: 11.4 µM (active) | EC50 [10]: < 0.1 µM (active) | AC50 [21]: > 52 µM (inactive) | AC50 (INS1): > 260 µM (inactive) | AC50 [22]: 2.75 µM (active) | EC50 [13]: 1.12 µM (active) | EC50 [14]: 5.89 µM (active) | EC50 (cells [16]): 1.87 µM (active)

CN1CCN(CC(=O)Nc2sc3c(c2C#N)CCCC3)CC1
IC50 (Estrogen receptor beta): 15 µM (not active)

Cc1cc(C(C)c2ccccc2)c(O)c(CN2CCOCC2)c1C (centres undefined)
IC50 (Protein Tat): > 100 µM (active) | EC50 (Ion channel NompC): > 29.9 µM (not active) | EC50 (Mucolipin-3): 5.07 µM (active)
